Measurements taken from patent US11213522B2, “Autoimmune-induced glutamatergic receptor dysfunction methods and treatments” (SARAH HERZOG MEMORIAL HOSPITAL EZRAT NASHIM ASSOCIATION, priority 2013, dated 2022).

Tested on: Rodent neuron cell cultures treated with anti-NMDAR antibodies
Assay: Example 3: NMDAR localization in neuron cultures treated with anti-NMDAR antibodies
Format: cell-based
Details: D-Serine 50-200 uM; histological measurements
Protocol: Rodent neuron cell cultures are treated with anti-NMDAR antibodies as described in Hughes E G et al., J Neurosci 2012 30(17):5866-75. […] The determination of receptors localization and other relevant measures is based on histological measurements.
Immunohistochemical methods will be applied to document (a) localization of NMDAR and NR1 and NR2 subunits; (b) loss of oligodendrocytes; (c) changes in astrocytes (S100beta) and microglia (cd11b), (d) expression of neurotrophic factors: brain derived neurotrophic factor (BDNF), nerve growth factor (NGF) and ciliary neurotrophic factor (CNTF); (e) markers of neurogenesis—doublecortin (17) and apoptosis—caspase3 (9). Quantification of histological measurements is based on images in several cortical subregions, striatum, […], hippocampus, and cerebellum.

SMILES: N[C@H](CO)C(=O)O [D-serine]
- Effect on NMDAR intracellular localization: reversing receptor intracellular localization
